Results published in patent publication US20240390382A1, “METHOD FOR TREATING CANCER” (THE CHILDREN'S MEDICAL CENTER CORPORATION, priority 2021, published 2024).
“Also recorded” adds a separate entry of the source.

Legend:
[1] = tested on: key leading edge genes (MLLT3 regulated) in CTR9 edited cells; assay: qRT-PCR analysis of key leading edge genes in CTR9 edited cells; type: cell-based, human; settings: two independent guides, inhibitor at the concentration of IC50, vs DMSO
Method: HEK293T cells are cultured in DMEM supplemented with 10% FBS and 1× penicillin/streptomycin. Human CD34 HSPCs were purchased from Fred Hutchinson Cancer Institute and cultured in StemSpan serum free culture medium (StemCell Technologies) supplemented with 1×CC100, 2 mM L-glutamine, 100 ng/mL TPO, 1×UM171 and 1× penicillin/streptomycin. For RNP based CRISPR editing of CD34+HSPCs, chemically synthesized gRNA and Cas9 protein were mixed and set at room temperature for 10 mins to allow the formation of deliverable RNP. The assembled RNP complexes were then delivered into CD34+HSPCs by Lonza 4D Nucleofector with program DZ-100. 48-72 hrs after nucleofection, cells were harvested for genomic DNA and the edited region was PCR amplified and the editing efficiency was analyzed by the ICE analysis from Synthego. Edited CD34+HSPCs were allowed to expand in the culture medium and harvested twice at day 3 and day 6 post-nucleofection. Harvested cells were washed in cold PBS and stained by HSC phenotyping antibody cocktail, which is composed of Brilliant Violet 421 anti-CD34, APC-H7 anti-CD45RA, PE-Cy7 anti-CD90, BB700 anti-CD133, PE anti-EPCR and APC anti-ITGA3 in ice cold FACS buffer (PBS+2% FBS) at 1:60 for 30 minutes in ice. Stained cells were then analyzed by BD LSRII flow cytometer. […]
RNA from HSPCs was harvested by Qiagen RNeasy kit and quantified by nanodrop. […]

CTR9 edited CD34+HSPCs = assay: HSC phenotyping (flow cytometry) of CTR9 edited CD34+ HSPCs, chemical rescue experiment; type: cell-based, human; settings: inhibitor used at the concentration of IC50, vs DMSO
Method: HEK293T cells are cultured in DMEM supplemented with 10% FBS and 1× penicillin/streptomycin. Human CD34 HSPCs were purchased from Fred Hutchinson Cancer Institute and cultured in StemSpan serum free culture medium (StemCell Technologies) supplemented with 1×CC100, 2 mM L-glutamine, 100 ng/mL TPO, 1×UM171 and 1× penicillin/streptomycin. For RNP based CRISPR editing of CD34+HSPCs, chemically synthesized gRNA and Cas9 protein were mixed and set at room temperature for 10 mins to allow the formation of deliverable RNP. The assembled RNP complexes were then delivered into CD34+HSPCs by Lonza 4D Nucleofector with program DZ-100. 48-72 hrs after nucleofection, cells were harvested for genomic DNA and the edited region was PCR amplified and the editing efficiency was analyzed by the ICE analysis from Synthego. Edited CD34+HSPCs were allowed to expand in the culture medium and harvested twice at day 3 and day 6 post-nucleofection. Harvested cells were washed in cold PBS and stained by HSC phenotyping antibody cocktail, which is composed of Brilliant Violet 421 anti-CD34, APC-H7 anti-CD45RA, PE-Cy7 anti-CD90, BB700 anti-CD133, PE anti-EPCR and APC anti-ITGA3 in ice cold FACS buffer (PBS+2% FBS) at 1:60 for 30 minutes in ice. Stained cells were then analyzed by BD LSRII flow cytometer. For the chemical rescue experiment, CDK9 inhibitors (LDCO000067 and AZD4573) and the YEATS domain inhibitor of ENL/ILLT3 (SR-0813) were used at the concentration of IC50.

## O=C(NC1CCC1)c1ccc2nc(-c3cccc(NS(=O)(=O)NCCN4CCCCC4)c3)cn2c1 [SR-0813]
[1]
  expression of key upregulated target genes (leading edge genes): downregulated many of the key upregulated target genes
CTR9 edited CD34+HSPCs; CTR9 edited CD34+ HSPCs
  CTR9-perturbation-mediated HSC expansion (partial loss of CTR9): rescues HSC expansion phenotype; also recorded: completely suppressed
CTR9 edited CD34+HSPCs; primary human HSPCs
  impact on the bulk HSPC population (CD34+CD45RA-): without a major impact on the bulk HSPC population
  phenotypic LT- and ST-HSC expansion: suppression of phenotypic LT- and ST-HSC expansion occurred
